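Step 1: Grow cells in 96-well plates. Step 2: Expose to compound for 48 hours at 5 concentrations. Step 3: Interpolate endpoints linearly; if unreached, use highest concentration. GI50 marks 50% less growth. TGI denotes the concentration required for complete inhibition of growth.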
Tests used:
Assay in all cases: NCI-60 cell line screen, 48 h
NCI/ADR-RES ovarian = system: NCI/ADR-RES ovarian
UO-31 renal = system: UO-31 renal
COLO 205 colon = system: COLO 205 colon
ACHN renal = system: ACHN renal
SNB-19 CNS = system: SNB-19 CNS
UACC-257 melanoma = system: UACC-257 melanoma
KM12 colon = system: KM12 colon
SF-268 CNS = system: SF-268 CNS
SNB-75 CNS = system: SNB-75 CNS
SK-MEL-5 melanoma = system: SK-MEL-5 melanoma
TK-10 renal = system: TK-10 renal
SK-MEL-2 melanoma = system: SK-MEL-2 melanoma
HT29 colon = system: HT29 colon
RXF 393 renal = system: RXF 393 renal
CCRF-CEM leukemia = system: CCRF-CEM leukemia
MCF7 breast = system: MCF7 breast
PC-3 prostate = system: PC-3 prostate
NCI-H522 lung = system: NCI-H522 lung
HOP-62 NSCLC = system: HOP-62 NSCLC
SW-620 colon = system: SW-620 colon
K-562 leukemia = system: K-562 leukemia
UACC-62 melanoma = system: UACC-62 melanoma
T-47D breast = system: T-47D breast
NCI-H23 lung = system: NCI-H23 lung
M14 melanoma = system: M14 melanoma
IGROV1 ovarian = system: IGROV1 ovarian
NCI-H226 lung = system: NCI-H226 lung
OVCAR-3 ovarian = system: OVCAR-3 ovarian
CAKI-1 renal = system: CAKI-1 renal
SF-539 CNS = system: SF-539 CNS
EKVX NSCLC = system: EKVX NSCLC
MDA-MB-231 breast = system: MDA-MB-231 breast
SN12C renal = system: SN12C renal
HCT-15 colon = system: HCT-15 colon
LOX IMVI melanoma = system: LOX IMVI melanoma
BT-549 breast = system: BT-549 breast
OVCAR-8 ovarian = system: OVCAR-8 ovarian
SK-OV-3 ovarian = system: SK-OV-3 ovarian
NCI-H460 lung = system: NCI-H460 lung
HL-60(TB) leukemia = system: HL-60(TB) leukemia
DU-145 prostate = system: DU-145 prostate
OVCAR-5 ovarian = system: OVCAR-5 ovarian
HCC-2998 colon = system: HCC-2998 colon
MALME-3M melanoma = system: MALME-3M melanoma
SF-295 CNS = system: SF-295 CNS
U251 CNS = system: U251 CNS
MOLT-4 leukemia = system: MOLT-4 leukemia
RPMI-8226 leukemia = system: RPMI-8226 leukemia
OVCAR-4 ovarian = system: OVCAR-4 ovarian
786-0 renal = system: 786-0 renal
A549 NSCLC = system: A549 NSCLC
HS 578T breast = system: HS 578T breast
MDA-MB-435 = system: MDA-MB-435
A498 renal = system: A498 renal
HOP-92 NSCLC = system: HOP-92 NSCLC
SK-MEL-28 melanoma = system: SK-MEL-28 melanoma

COc1cc(/C=C/c2cc(/C=C/c3ccc(O)c(OC)c3)n(C(=O)Nc3ccccc3Cl)n2)ccc1O
GI50 (NCI/ADR-RES ovarian): 247 nM
TGI (NCI/ADR-RES ovarian): 7910 nM
GI50 (UO-31 renal): 159 nM
TGI (UO-31 renal): 1170 nM
GI50 (COLO 205 colon): 1490 nM
TGI (COLO 205 colon): 2910 nM
GI50 (ACHN renal): 344 nM
TGI (ACHN renal): 5350 nM
GI50 (SNB-19 CNS): 743 nM
TGI (SNB-19 CNS): 4230 nM
GI50 (UACC-257 melanoma): 1020 nM
TGI (UACC-257 melanoma): 3710 nM
GI50 (KM12 colon): 326 nM
TGI (KM12 colon): 1500 nM
GI50 (SF-268 CNS): 529 nM
TGI (SF-268 CNS): 3180 nM
GI50 (SNB-75 CNS): 259 nM
TGI (SNB-75 CNS): 959 nM
GI50 (SK-MEL-5 melanoma): 299 nM
TGI (SK-MEL-5 melanoma): 1220 nM
GI50 (TK-10 renal): 601 nM
TGI (TK-10 renal): 3600 nM
GI50 (SK-MEL-2 melanoma): 397 nM
TGI (SK-MEL-2 melanoma): 1600 nM
GI50 (HT29 colon): 323 nM
TGI (HT29 colon): 1360 nM
GI50 (RXF 393 renal): 309 nM
TGI (RXF 393 renal): 845 nM
GI50 (CCRF-CEM leukemia): 216 nM
TGI (CCRF-CEM leukemia): 844 nM
GI50 (MCF7 breast): 290 nM
TGI (MCF7 breast): 1400 nM
GI50 (PC-3 prostate): 392 nM
TGI (PC-3 prostate): 2220 nM
GI50 (NCI-H522 lung): 112 nM
TGI (NCI-H522 lung): 672 nM
GI50 (HOP-62 NSCLC): 471 nM
TGI (HOP-62 NSCLC): 1780 nM
GI50 (SW-620 colon): 389 nM
TGI (SW-620 colon): 1690 nM
GI50 (K-562 leukemia): 301 nM
TGI (K-562 leukemia): 3110 nM
GI50 (UACC-62 melanoma): 425 nM
TGI (UACC-62 melanoma): 2500 nM
GI50 (T-47D breast): 821 nM
TGI (T-47D breast): 2790 nM
GI50 (NCI-H23 lung): 330 nM
TGI (NCI-H23 lung): 2460 nM
GI50 (M14 melanoma): 283 nM
TGI (M14 melanoma): 1190 nM
GI50 (IGROV1 ovarian): 485 nM
TGI (IGROV1 ovarian): 2390 nM
GI50 (NCI-H226 lung): 617 nM
TGI (NCI-H226 lung): 2740 nM
GI50 (OVCAR-3 ovarian): 450 nM
TGI (OVCAR-3 ovarian): 3680 nM
GI50 (CAKI-1 renal): 222 nM
TGI (CAKI-1 renal): 1210 nM
GI50 (SF-539 CNS): 352 nM
TGI (SF-539 CNS): 1580 nM
GI50 (EKVX NSCLC): 671 nM
TGI (EKVX NSCLC): 3840 nM
GI50 (MDA-MB-231 breast): 708 nM
TGI (MDA-MB-231 breast): 11400 nM
GI50 (SN12C renal): 366 nM
TGI (SN12C renal): 5770 nM
GI50 (HCT-15 colon): 332 nM
TGI (HCT-15 colon): 4150 nM
GI50 (LOX IMVI melanoma): 193 nM
TGI (LOX IMVI melanoma): 1390 nM
GI50 (BT-549 breast): 303 nM
TGI (BT-549 breast): 2750 nM
GI50 (OVCAR-8 ovarian): 378 nM
TGI (OVCAR-8 ovarian): 1600 nM
GI50 (SK-OV-3 ovarian): 401 nM
TGI (SK-OV-3 ovarian): 2350 nM
GI50 (NCI-H460 lung): 331 nM
TGI (NCI-H460 lung): 1250 nM
GI50 (HL-60(TB) leukemia): 282 nM
TGI (HL-60(TB) leukemia): 721 nM
GI50 (DU-145 prostate): 472 nM
TGI (DU-145 prostate): 1640 nM
GI50 (OVCAR-5 ovarian): 1650 nM
TGI (OVCAR-5 ovarian): 5500 nM
GI50 (HCC-2998 colon): 725 nM
TGI (HCC-2998 colon): 5720 nM
GI50 (MALME-3M melanoma): 539 nM
TGI (MALME-3M melanoma): 2010 nM
GI50 (SF-295 CNS): 636 nM
TGI (SF-295 CNS): 3300 nM
GI50 (U251 CNS): 384 nM
TGI (U251 CNS): 1510 nM
GI50 (MOLT-4 leukemia): 269 nM
TGI (MOLT-4 leukemia): 1200 nM
GI50 (RPMI-8226 leukemia): 321 nM
TGI (RPMI-8226 leukemia): 1550 nM
GI50 (OVCAR-4 ovarian): 722 nM
TGI (OVCAR-4 ovarian): 9090 nM
GI50 (786-0 renal): 426 nM
TGI (786-0 renal): 1570 nM
GI50 (A549 NSCLC): 336 nM
TGI (A549 NSCLC): 2080 nM
GI50 (HS 578T breast): 114 nM
TGI (HS 578T breast): 890 nM
GI50 (MDA-MB-435): 73.8 nM
TGI (MDA-MB-435): 236 nM
GI50 (A498 renal): 487 nM
TGI (A498 renal): 2040 nM
GI50 (HOP-92 NSCLC): 349 nM
TGI (HOP-92 NSCLC): 2390 nM
GI50 (SK-MEL-28 melanoma): 519 nM
TGI (SK-MEL-28 melanoma): 4110 nM

From PubChem BioAssay (NCI)
